Measurements reported in US8852883B2 (priority 2008, dated 2014).
Entries after “also recorded” stand apart in the source; their conditions may differ. Like-named read-outs stand apart in the source and are kept apart here. *: point of attachment. FITC = O=C1OC2(c3ccc(O)cc3Oc3cc(O)ccc32)c2ccc(NC(=S)*)cc21; Ahx = NCCCCCC(=O)O

Experiments:
[1] = test system: (virulent) B. anthracis-derived enzyme; format: biochemical, Bacillus anthracis
[2] = test system: (virulent) B. anthracis-derived enzyme; format: biochemical, Bacillus anthracis; remark: listed apart in the source
[3] = test system: enzymes derived from V. cholerae; format: biochemical
[4] = test system: B. thuringiensis-derived enzyme; format: biochemical
[5] = test system: P. aeruginosa-derived enzyme; format: biochemical, Pseudomonas aeruginosa
lysostaphin = biological target: T1, lysostaphin (Staphylococcus simulans, UniProt P10547); format: biochemical
T1 construct: purchased Sigma

[6] = test system: currently used micro-organisms; format: biochemical
[7] = test system: currently used micro-organisms; format: biochemical; remark: listed apart in the source
[8] = test system: enzymes derived from E. herbicola; format: biochemical
[9] = test system: enzymes derived from C. botulinum; format: biochemical
[10] = test system: V. cholerae-derived enzyme; format: biochemical
[11] = test system: enzymes derived from B. globigii; format: biochemical
B. cereus = format: biochemical
B. thuringiensis = format: biochemical
B. cereus cells = format: cell-based; details: for Location of fluorescent BikKam1 fragments (fluorescence microscopy): 0.01 M BikKam1
Thermolysin = biological target: T2, Thermolysin (Bacillus thermoproteolyticus, UniProt P00800); format: biochemical
T2 construct: purchased Sigma
T2 sequence (P00800 233-548): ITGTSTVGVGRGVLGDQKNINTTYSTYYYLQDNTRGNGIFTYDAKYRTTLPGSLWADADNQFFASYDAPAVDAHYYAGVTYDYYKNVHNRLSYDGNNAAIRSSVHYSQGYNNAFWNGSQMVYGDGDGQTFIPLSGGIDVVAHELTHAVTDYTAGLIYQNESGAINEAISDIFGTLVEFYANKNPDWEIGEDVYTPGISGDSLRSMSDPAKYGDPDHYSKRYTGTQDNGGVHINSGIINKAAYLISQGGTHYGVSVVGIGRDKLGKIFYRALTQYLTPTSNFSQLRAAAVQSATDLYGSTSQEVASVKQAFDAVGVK

[12] = test system: Collagenase Vibrio/Dispase; format: biochemical, Vibrio sp
Collagenase Clostridium = format: biochemical, Clostridium sp.
[13] = biological target: Anthrax Lethal Factor (LF) (Bacillus anthracis, UniProt P15917); format: biochemical
Anthrax Lethal Factor (LF), sequence (P15917 34-809 limits assumed): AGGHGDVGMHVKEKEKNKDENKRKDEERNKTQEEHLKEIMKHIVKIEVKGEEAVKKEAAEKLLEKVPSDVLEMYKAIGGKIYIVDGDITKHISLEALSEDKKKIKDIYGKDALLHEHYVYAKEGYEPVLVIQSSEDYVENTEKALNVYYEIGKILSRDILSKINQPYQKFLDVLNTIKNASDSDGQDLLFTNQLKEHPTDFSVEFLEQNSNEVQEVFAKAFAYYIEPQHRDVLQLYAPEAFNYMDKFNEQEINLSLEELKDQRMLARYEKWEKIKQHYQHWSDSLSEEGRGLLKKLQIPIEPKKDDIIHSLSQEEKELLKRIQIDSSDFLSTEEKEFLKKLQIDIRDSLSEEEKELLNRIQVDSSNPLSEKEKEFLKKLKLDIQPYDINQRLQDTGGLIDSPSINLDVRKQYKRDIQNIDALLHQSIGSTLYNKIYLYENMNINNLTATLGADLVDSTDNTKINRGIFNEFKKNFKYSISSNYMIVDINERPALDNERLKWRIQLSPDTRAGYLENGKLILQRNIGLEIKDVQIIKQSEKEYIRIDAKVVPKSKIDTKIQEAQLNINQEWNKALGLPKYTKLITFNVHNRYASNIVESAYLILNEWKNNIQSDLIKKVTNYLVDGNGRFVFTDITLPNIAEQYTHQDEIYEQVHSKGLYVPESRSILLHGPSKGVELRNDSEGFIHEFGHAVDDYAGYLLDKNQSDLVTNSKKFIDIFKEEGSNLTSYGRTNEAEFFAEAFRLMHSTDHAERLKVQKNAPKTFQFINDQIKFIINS

T1 sequence (P10547 248-493, species assumed): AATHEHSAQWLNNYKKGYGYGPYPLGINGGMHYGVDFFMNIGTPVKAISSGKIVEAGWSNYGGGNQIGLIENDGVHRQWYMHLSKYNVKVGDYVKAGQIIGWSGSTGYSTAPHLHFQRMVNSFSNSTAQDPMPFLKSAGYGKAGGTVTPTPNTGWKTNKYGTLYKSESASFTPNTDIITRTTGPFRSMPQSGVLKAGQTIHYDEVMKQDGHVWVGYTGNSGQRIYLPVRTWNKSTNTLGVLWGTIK

FITC-Ahx-Leu-DLeu-Leu-Lys-DABCYL [BikKam5]
Fluorescent signal of FRET: cleavage of substrate by B. anthracis-derived enzyme [1]: specifically cleaved
Fluorescent signal of FRET: cleavage of substrate by B. anthracis-derived enzyme [2]: specifically cleaved
Fluorescent signal of FRET: cleavage of substrate by V. cholerae [3]: Some cleavage
Fluorescent signal of FRET: cleavage of substrate by B. thuringiensis-derived enzyme [4]: Some weak activity

FITC-Ahx-Gly-Gly-Gly-Gly-Gly-DABCYL [BikKam20]
Activity for P. aeruginosa compared to the other BikKam20-24 substrates [5]: increase in cleavage
Fluorescent signal of FRET: cleavage of substrate by P. aeruginosa-derived enzyme [5]: specifically cleaved
Cleavage of substrate by lysostaphin (lysostaphin): specifically cleaved

FITC-Ahx-Gly-DAla-Lys-DABCYL [BikKam8]
Enzyme activity on substrate with the currently used micro-organisms [6]: No significant enzyme activity
Enzyme activity on substrate with the currently used micro-organisms [7]: No significant enzyme activity

FITC-Ahx-Leu-Leu-Lys-DABCYL [BikKam3]
Fluorescent signal of FRET: cleavage of substrate by E. herbicola [8]: show activity
Fluorescent signal of FRET: cleavage of substrate by C. botulinum [9]: show activity
Fluorescent signal of FRET: cleavage of substrate by V. cholerae-derived enzyme [10]: specifically cleaved
Fluorescent signal of FRET: cleavage of substrate by V. cholerae [3]: show activity
Fluorescent signal of FRET: cleavage of substrate by B. thuringiensis-derived enzyme [4]: specifically cleaved
Fluorescent signal of FRET: cleavage of substrate by B. globigii [11]: show activity

FITC-Ahx-Gly-Gly-DABCYL [BikKam23]
Activity for P. aeruginosa compared to the other BikKam20-24 substrates [5]: lower than BikKam20-BikKam22; also recorded: significant decrease in activity; also recorded: lower activity
Fluorescent signal of FRET: cleavage of substrate by P. aeruginosa-derived enzyme [5]: specifically cleaved
Cleavage of substrate by lysostaphin (lysostaphin): not cleaved; also recorded: does not interact

FITC-Ahx-Pro-Hyp-Lys-DABCYL [BikKam9]
Enzyme activity on substrate with the currently used micro-organisms [6]: No significant enzyme activity
Enzyme activity on substrate with the currently used micro-organisms [7]: No significant enzyme activity

FITC-Ahx-Gly-Gly-Gly-DABCYL [BikKam22]
Activity for P. aeruginosa compared to the other BikKam20-24 substrates [5]: slight increase in activity; also recorded: increase in cleavage
Fluorescent signal of FRET: cleavage of substrate by P. aeruginosa-derived enzyme [5]: specifically cleaved
Cleavage of substrate by lysostaphin (lysostaphin): somewhat cleavage

FITC-Ahx-DLeu-Leu-Lys-DABCYL [BikKam2]
Fluorescent signal of FRET: cleavage of substrate by B. anthracis-derived enzyme [1]: specifically cleaved
Fluorescent signal of FRET: cleavage of substrate by B. anthracis-derived enzyme [2]: specifically cleaved
Fluorescent signal of FRET: cleavage of substrate by B. cereus (B. cereus): weak signal
Fluorescent signal of FRET: cleavage of substrate by B. thuringiensis (B. thuringiensis): weak signal
Fluorescent signal of FRET: cleavage of substrate by B. thuringiensis-derived enzyme [4]: specifically cleaved

FITC-Ahx-Gly-Gly-Gly-Gly-DABCYL ({FITC-Ahx}-GGGG-{DABCYL}) [BikKam21]
Activity for P. aeruginosa compared to the other BikKam20-24 substrates [5]: slight increase in activity
Cleavage of substrate by lysostaphin (lysostaphin): specifically cleaved

FITC-Ahx-Gly-DLeu-Lys-DABCYL [BikKam7]
Fluorescent signal of FRET: cleavage of substrate by B. anthracis-derived enzyme [1]: specifically cleaved
Fluorescent signal of FRET: cleavage of substrate by B. anthracis-derived enzyme [2]: specifically cleaved
Fluorescent signal of FRET: cleavage of substrate by B. thuringiensis (B. thuringiensis): weak signal

FITC-Ahx-Gly-DABCYL [BikKam24]
Fluorescent signal of FRET: cleavage of substrate by P. aeruginosa-derived enzyme [5]: no P. aeruginosa activity
Cleavage of substrate by lysostaphin (lysostaphin): No significant enzyme activity
Enzyme activity on substrate with the currently used micro-organisms [7]: No significant enzyme activity

FITC-Ahx-Leu-DVal-Lys-DABCYL [BikKam6]
Background with bacteria other than (virulent) B. anthracis [6]: hardly revealed any background
Background with other bacteria than (virulent) B. anthracis ([6]; at 60 min): Some weak background

FITC-Ahx-DLeu-DLeu-Lys-DABCYL [BikKam4]
Fluorescent signal of FRET: cleavage of substrate by B. anthracis-derived enzyme [1]: specifically cleaved
Fluorescent signal of FRET: cleavage of substrate by B. anthracis-derived enzyme [2]: specifically cleaved
Fluorescent signal of FRET: cleavage of substrate by B. thuringiensis-derived enzyme [4]: specifically cleaved

FITC-Ahx-Leu-DLeu-Lys-DABCYL [BikKam1]
Fluorescent signal of FRET: cleavage of substrate by B. anthracis-derived enzyme [1]: specifically cleaved
Fluorescent bacteria (fluorescence microscopy) (B. cereus cells; 0 hr): no fluorescent bacteria could be detected
Location of fluorescent BikKam1 fragments (fluorescence microscopy) (B. cereus cells; B. cereus, 2 hr incubation): could be detected in the cytoplasm
Location of fluorescent BikKam1 fragments (fluorescence microscopy) (B. cereus cells; B. cereus, 4 hr): besides in the cytoplasm also present in the cell wall at the new division sides
Location of fluorescent BikKam1 fragments (fluorescence microscopy) (B. cereus cells; B. cereus, 16 hr incubation): moved from the cytoplasm to the side walls
Fluorescent BikKam1 fragments in bacteria (fluorescence microscopy) (B. cereus cells; B. cereus, time not stated): Detection of fluorescent BikKam1 fragments in the cytoplasm
FRET signal with purified thermolysin (Thermolysin): No signal
FRET signal with purified collagenase (Vibrio sp) [12]: No signal
Fluorescent signal of FRET: cleavage of substrate by B. anthracis-derived enzyme [2]: specifically cleaved
FRET signal with purified collagenase (Clostridium sp.) (Collagenase Clostridium): No signal
Fluorescent signal of FRET: cleavage of substrate by B. thuringiensis-derived enzyme [4]: Some weak activity
FRET signal with purified Lethal Factor [13]: No signal
Fluorescent signal of FRET: cleavage of substrate by B. globigii [11]: not capable of cleaving
